# Laboratory results taken from patent EP4692094A1 (Beijing Konruns Pharmaceutical Co., Ltd., priority 2023, dated 2024).
# Experiments:
# KAT6B = target: T1, KAT6B (Homo sapiens, UniProt Q8WYB5); experiment: Enzymatic activity assay for KAT6B acetyltransferase (TR-FRET, histone substrate H3); format: biochemical; conditions: KAT6B 3 nM, Bio-H3 400 nM, AcCOA 2 µM
# T1 construct: purchased active motife (Active Motif) 81224
# Procedure: The acetylation effects of KAT6B on histone substrate H3, as well as KAT5, KAT7, and KAT8 on histone substrate H4, were determined using the TR-FRET (time-resolved fluorescence resonance energy transfer) method. The determination was performed according to experimental procedures similar to those in "Pharmacological Experiment I": 1.2 Preparation of compounds: The compounds prepared in the examples were each dissolved in dimethylsulfoxide to give solutions at a concentration of 10 mmol/L. • 1) The compounds in the examples were each diluted from 10 mmol/L stock solution to 0.2 mmol/L, i.e., 1 µL of the compound was added to 49 µL of DMSO, and 3-fold dilution was performed to give 10 concentrations. • 2) 50 nL of the test compounds were transferred to 384 reaction plates using Echo, two replicates for each compound, and the plates were centrifuged at a rotation speed of 1000 rpm for 1 min, the final concentration of dimethylsulfoxide (DMSO) being 0.5%. […]
# For KAT8: • 3) 2.5 µL of the KAT8 enzyme solution at a final concentration of 10 nM was added to the 384 reaction plates in step 2), and the plates were centrifuged at 1000 rpm for 1 min and incubated at 25 °C for 10 min. • 4) 2.5 µL of […] at a final concentration of 300 nM and an AcCOA (acetyl-CoA) reaction solution at a final concentration of 2 µM were added to the 384 reaction plates in step 3), and the plates were centrifuged at a rotation speed of 1000 rpm for 1 min and incubated at 25 °C for 90 min. • 5) 5 µL of Eu-Ab& Ulight-SA detection solution was separately added to the 384 reaction plates in step 4) of the 4 groups described above, and the plates were centrifuged at 1000 rpm for 1 min and incubated at 25 °C for 60 min. • 6) The HTRF […] signals were read using a BMG high-throughput drug-screening multi-mode microplate reader.
# The acetylation levels of the histones in the groups were analyzed by the GraphPad Prism 8 software. […]
# [1] = Assay for plasma protein binding rate (equilibrium dialysis), rat plasma; format: in vitro ADME; conditions: dialysis 6 h at 37 °C, read-out: Rat (Fu%)
# Procedure: 1.1 Preparation of compounds: The compounds prepared in the examples were each dissolved in dimethylsulfoxide to give solutions at a concentration of 10 mmol/L. • 1) The example compounds were each diluted from 10 mmol/L stock solution to 0.2 mmol/L, i.e., 1 µL of the compound was added to 49 µL of DMSO; • 2) 3 µL of 0.2 mmol/L test compounds were added to 597 µL of blood plasma, and the mixtures were vortexed at 1000 rpm for 2 min; • 3) 50 µL of the plasma containing the drug in 2) was taken, 50 µL of PBS was added, and 300 µL of methanol internal standard* was added to serve as a sample T0; • 4) 120 µL of the plasma containing the drug in 2) was taken and added to one side of an HTD device membrane, and 120 µL of PBS was added to the other side of the membrane; a breathable film was covered, and the plasma and the residual sample in 2) were balanced at 37 °C (100 rpm and 5% CO2) for 6 h; • 5) 50 µL of the dialyzed plasma side sample was taken, 50 µL of PBS was added, and 300 µL of methanol internal standard* was added to serve as a sample P; • 6) 50 µL of the dialyzed PBS side sample was taken, 50 µL of blank plasma was added, and 300 µL of methanol internal standard* was added to serve as a sample B; • 7) 50 µL of the plasma containing the drug in 2) was taken, 50 µL of PBS was added, and 300 µL of methanol internal standard* was added to serve as a sample T6; • 8) All samples were vortexed, mixed homogeneously, and then centrifuged at 3220 g for 40 min at 4 °C; • 9) 100 µL of the supernatant and 100 µL of purified water were mixed homogenously for liquid chromatography-mass spectrometry.
# An internal standard method was used, and the plasma protein binding rate, recovery rate, and residual percentage were calculated by using Excel according to the ratio of the peak area of the sample to the peak area of the internal standard. Free rate(%) = (RatioB)/(RatioP) × 100% [formula] Binding rate(%) = 100%−Free rate% [formula] Recovery rate(%) = (RatioB + RatioP)/(RatioT0) × 100% [formula] Remaining percentage(%) = (RatioT6)/(RatioT0) × 100% [formula]
# RatioB: a ratio of the peak area of the test substance on the PBS side to the peak area of the internal standard; RatioP: a ratio of the peak area of the test substance on the plasma side to the peak area of the internal standard; RatioT6: a ratio of the peak area of the sample after incubation with the test substance for 6 h to the peak area of the internal standard; RatioT0: a ratio of the peak area of the sample after incubation with the test substance for 0 h to the peak area of the internal standard. Table 8. Plasma protein binding rate (Fu%) data for various species of example compounds
# T1 sequence (Q8WYB5 whole entry): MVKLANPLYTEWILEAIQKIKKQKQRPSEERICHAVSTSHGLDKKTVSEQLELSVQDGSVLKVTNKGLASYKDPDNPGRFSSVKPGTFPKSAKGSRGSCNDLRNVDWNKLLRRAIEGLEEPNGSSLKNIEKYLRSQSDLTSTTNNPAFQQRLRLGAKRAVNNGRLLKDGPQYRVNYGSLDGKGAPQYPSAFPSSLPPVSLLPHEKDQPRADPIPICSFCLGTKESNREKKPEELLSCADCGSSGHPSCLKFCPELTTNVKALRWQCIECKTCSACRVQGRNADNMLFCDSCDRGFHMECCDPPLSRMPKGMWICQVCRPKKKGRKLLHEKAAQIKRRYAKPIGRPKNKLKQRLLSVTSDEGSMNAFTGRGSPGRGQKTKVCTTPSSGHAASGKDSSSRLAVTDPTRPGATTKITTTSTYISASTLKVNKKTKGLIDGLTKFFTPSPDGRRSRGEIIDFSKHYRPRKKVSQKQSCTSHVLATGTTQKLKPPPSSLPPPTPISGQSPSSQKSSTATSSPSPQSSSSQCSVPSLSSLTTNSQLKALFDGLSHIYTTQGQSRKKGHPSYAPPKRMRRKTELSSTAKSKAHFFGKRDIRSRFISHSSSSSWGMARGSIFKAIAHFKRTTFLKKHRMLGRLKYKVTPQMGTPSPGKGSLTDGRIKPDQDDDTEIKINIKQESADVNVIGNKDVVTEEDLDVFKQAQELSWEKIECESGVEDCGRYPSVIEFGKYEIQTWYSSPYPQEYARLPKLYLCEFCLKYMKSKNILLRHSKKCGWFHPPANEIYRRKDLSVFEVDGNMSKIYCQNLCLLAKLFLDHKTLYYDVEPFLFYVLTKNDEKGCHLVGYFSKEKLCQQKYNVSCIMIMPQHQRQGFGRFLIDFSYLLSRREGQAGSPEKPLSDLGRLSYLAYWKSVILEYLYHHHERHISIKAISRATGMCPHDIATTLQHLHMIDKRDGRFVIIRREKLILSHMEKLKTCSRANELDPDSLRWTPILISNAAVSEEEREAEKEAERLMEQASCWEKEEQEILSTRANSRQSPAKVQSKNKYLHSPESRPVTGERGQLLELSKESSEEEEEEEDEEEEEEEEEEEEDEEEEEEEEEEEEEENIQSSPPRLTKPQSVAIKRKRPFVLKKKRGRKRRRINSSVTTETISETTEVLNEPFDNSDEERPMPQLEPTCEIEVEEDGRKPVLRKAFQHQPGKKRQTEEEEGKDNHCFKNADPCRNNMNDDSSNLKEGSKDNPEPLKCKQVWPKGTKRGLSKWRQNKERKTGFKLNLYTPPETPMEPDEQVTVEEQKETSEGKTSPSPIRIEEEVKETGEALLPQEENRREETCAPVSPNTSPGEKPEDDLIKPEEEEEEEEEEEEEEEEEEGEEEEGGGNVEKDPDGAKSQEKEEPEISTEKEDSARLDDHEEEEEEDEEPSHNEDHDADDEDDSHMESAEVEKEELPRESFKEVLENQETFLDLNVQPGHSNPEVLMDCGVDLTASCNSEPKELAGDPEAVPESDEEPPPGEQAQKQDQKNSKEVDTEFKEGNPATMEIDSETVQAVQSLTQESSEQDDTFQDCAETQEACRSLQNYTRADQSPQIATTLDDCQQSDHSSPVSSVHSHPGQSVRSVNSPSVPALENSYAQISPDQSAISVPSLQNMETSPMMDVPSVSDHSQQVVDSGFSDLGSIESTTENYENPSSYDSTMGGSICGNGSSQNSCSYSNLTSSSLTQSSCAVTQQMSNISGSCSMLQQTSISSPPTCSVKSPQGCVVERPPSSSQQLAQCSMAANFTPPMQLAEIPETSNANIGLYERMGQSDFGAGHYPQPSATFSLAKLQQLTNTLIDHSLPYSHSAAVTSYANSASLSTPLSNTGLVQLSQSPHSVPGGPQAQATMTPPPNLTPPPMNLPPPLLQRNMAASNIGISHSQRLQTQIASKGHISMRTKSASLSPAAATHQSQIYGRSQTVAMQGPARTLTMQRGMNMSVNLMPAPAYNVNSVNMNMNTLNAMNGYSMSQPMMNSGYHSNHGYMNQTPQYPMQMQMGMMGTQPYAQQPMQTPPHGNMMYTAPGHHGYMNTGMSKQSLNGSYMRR
SMILES,IC50 (KAT6B) [nM],"fraction unbound at 6 h, 1 µM [1]"
"COc1ccc2ccoc2c1S(=O)(=O)Nc1noc2cc(Cn3cccn3)nc(OC)c12 [Example 10, N-(6-((1H-Pyrazol-1-yl)methyl)-4-methoxyisoxazolo[4,5-c]pyridin-3-yl)-6-methoxybenzofuran-7-sulfonamide]",1.78,0.0132
"COc1cc2c(cc1S(=O)(=O)Nc1noc3cc(Cn4cccn4)nc(OC)c13)CCCC2 [Example 2, N-(6-((1H-Pyrazol-1-yl)methyl)-4-methoxyisoxazolo[4,5-c]pyridin-3-yl)-3-methoxy-5,6,7,8-tetrahydronaphthalene-2-sulfonamide]",2.34,0.0167
"COc1ccc2c(c1S(=O)(=O)Nc1noc3cc(Cn4cccn4)nc(OC)c13)OCC2 [Example 9, N-(6-((1H-Pyrazol-1-yl)methyl)-4-methoxyisoxazolo[4,5-c]pyridin-3-yl)-6-methoxy-2,3-dihydrobenzofuran-7-sulfonamide]",,0.0257
"COc1cc2c(cc1S(=O)(=O)Nc1noc3cc(Cn4cccn4)nc(OC)c13)OCC2 [Example 59, N-(6-((1H-Pyrazol-1-yl)methyl)-4-methoxyisoxazolo[4,5-c]pyridin-3-yl)-5-methoxy-2,3-dihydrobenzofuran-6-sulfonamide]",9.5,0.0414
"COc1cc2c(cc1S(=O)(=O)Nc1noc3cc(Cn4cccn4)nc(OC)c13)CCCO2 [Example 76, N-(6-((1H-Pyrazol-1-yl)methyl)-4-methoxyisoxazolo[4,5-c]pyridin-3-yl)-7-methoxy-3,4-dihydro-1H-benzopyran-6-sulfonamide]",,0.0144
